Nc1nccnc1Cl
solubility (mole fraction)
Details | 278.15 K | 283.15 K | 288.15 K | 293.15 K | 298.15 K | 303.15 K | 308.15 K | 313.15 K | 318.15 K | 323.15 K
in DMF | 0.00918 | 0.0122 | 0.0155 | 0.02 | 0.0247 | 0.0295 | 0.0346 | 0.04 | 0.0456 | 0.0515
in ethylene glycol | 0.000725 | 0.000935 | 0.00117 | 0.00147 | 0.0018 | 0.00217 | 0.00257 | 0.00301 | 0.00348 | 0.00394
in isopropanol | 0.002 | 0.00254 | 0.00319 | 0.004 | 0.00488 | 0.00591 | 0.00697 | 0.008 | 0.00929 | 0.0109
in methanol | 0.00283 | 0.00372 | 0.00479 | 0.00598 | 0.00723 | 0.00847 | 0.01 | 0.0116 | 0.0133 | 0.0153
in water | 2.78e-05 | 3.74e-05 | 4.95e-05 | 6.21e-05 | 7.6e-05 | 9.05e-05 | 0.000106 | 0.000123 | 0.00014 | 0.000158

Nc1ncc(Br)nc1Br
solubility (mole fraction)
Details | 278.15 K | 283.15 K | 288.15 K | 293.15 K | 298.15 K | 303.15 K | 308.15 K | 313.15 K | 318.15 K | 323.15 K
in ethanol | 0.000754 | 0.000938 | 0.00115 | 0.00136 | 0.00158 | 0.0018 | 0.00202 | 0.00231 | 0.00261 | 0.00291
in ethylene glycol | 0.000127 | 0.000155 | 0.000185 | 0.000219 | 0.000256 | 0.000291 | 0.00033 | 0.000373 | 0.00042 | 0.000469
in isopropanol | 0.000516 | 0.000615 | 0.00072 | 0.00085 | 0.000986 | 0.00115 | 0.00131 | 0.00149 | 0.00169 | 0.00192
in propylene glycol | 0.000258 | 0.000304 | 0.00037 | 0.000432 | 0.000506 | 0.000577 | 0.000651 | 0.000734 | 0.000827 | 0.000928
in water | 2.55e-06 | 3.14e-06 | 3.73e-06 | 4.44e-06 | 5.18e-06 | 5.89e-06 | 6.76e-06 | 7.68e-06 | 8.61e-06 | 9.63e-06
